Assay: Pharmacokinetics after i.v. bolus injection in rats (non-compartmental analysis, dose proportionality)
Type: in vivo, Male Sprague–Dawley rats
Method: Freshly prepared ^175Lu-DOTA-PSMA-GUL solution (2.1 mg/mL) was administered by i.v. bolus injection via the penile vein (n = 5–7) at three doses of 1, 2, and 5 mg/kg. Approximately 0.3 mL of the jugular venous blood samples were collected at predetermined times after i.v. injection. Plasma samples were harvested by centrifugation of the blood samples at 3220 × g for 10 min. Urine and feces samples were collected at 4, 8, 12, and 24 h after i.v. injection. All samples were stored at -70 °C until analysis.
The plasma concentration–time data were analyzed by non-compartmental method using Phoenix® WinNonlin® (Pharsight, NC, USA). The fraction of ^175Lu-DOTA-PSMA-GUL excreted into urine (Furine) and feces (Ffeces) were calculated by the ratio of the total amount of drug excreted in the urine and feces to the fraction of the dose, respectively. The tissue-to-plasma partition coefficients (KP) were calculated as the tissue-to-plasma concentration ratios.
Dose proportionality was tested for Cmax, AUCall, and AUCinf based on power model. Assuming the natural logarithm of the pharmacokinetic parameter is linearly related to the natural logarithm of dose as in the following equation: ln(PK parameter) = β0 + β1 × ln(dose), the slope coefficient (β1) and its two-sided 95% confidence intervals (CI) were estimated.

[1] = i.v. injection, average over doses

## O=C([O-])CN1CCN(CC(=O)[O-])CCN(CC(=O)[O-])C(Cc2ccc(NC(=S)NCCCC[C@H](NC(=O)N[C@@H](CCC(=O)O)C(=O)O)C(=O)O)cc2)CN(CC(=O)[O-])CC1.[Lu+3] (stereo partly shown) [^175Lu-DOTA-PSMA-GUL, Lutetium labeled-1,4,7,10-tetraazacyclododecane-1,4,7,10-tetraacetic acid (DOTA)-PSMA-GUL]
After 4 h of i.v. injection
  detection in the plasma: not detected
From the i.v. injection study
  clearance (CL): 10.126 mL/min/kg
i.v. injection 1 mg/kg
  AUCall: 1841.19 ± 266.36 ng·h/mL
  AUCinf: 1857.48 ± 270.08 ng·h/mL
  C0: 9267.42 ± 2673.59 ng/mL
  CL: 9.13 ± 1.30 mL/min/kg
  MRT: 20.4 ± 1.2 min
  VSS: 0.19 ± 0.03 L/kg
  Vz: 0.25 ± 0.03 L/kg
  t1/2: 19.2 ± 1.2 min
i.v. injection 2 mg/kg
  AUCall: 3029.00 ± 350.80 ng·h/mL
  AUCinf: 3047.45 ± 346.00 ng·h/mL
  C0: 14,960.22 ± 3104.40 ng/mL
  CL: 11.04 ± 1.15 mL/min/kg
  MRT: 19.2 ± 1.8 min
  VSS: 0.21 ± 0.04 L/kg
  Vz: 0.29 ± 0.05 L/kg
  t1/2: 18 ± 1.8 min
i.v. injection 5 mg/kg
  AUCall: 8038.10 ± 1055.28 ng·h/mL
  AUCinf: 8076.44 ± 1063.99 ng·h/mL
  C0: 46,720.92 ± 13,829.91 ng/mL
  CL: 10.46 ± 1.30 mL/min/kg
  MRT: 19.2 ± 1.2 min
  VSS: 0.20 ± 0.03 L/kg
  Vz: 0.30 ± 0.09 L/kg
  t1/2: 19.8 ± 5.4 min
[1]
  average CL: 10.13 mL/min/kg
  average volume of distribution (Vss): 0.20 L/kg
